For eleven molecules, Writhing number and IC50 results are on record in ChEMBL document CHEMBL1122448, “New carboxyalkyl inhibitors of brain enkephalinase: synthesis, biological activity, and analgesic properties” (J Med Chem, 1983).

Structures are written as SMILES. Where a SMILES comes first, the peptide text is derived from it.

The test system of experiment [1] is Mus musculus. Briefly: Number of writhings 10 min after intracerebroventricular administration of 10 microg 3 and ip administration of naloxone (10 min before compound is administered). Format: functional. A general note: In writhing tests, fewer writhes than in controls are read as antinociception.
Experiment [2] has as its target T1, Neprilysin (Mus musculus, UniProt Q61391).
T1 sequence (Q61391 whole entry): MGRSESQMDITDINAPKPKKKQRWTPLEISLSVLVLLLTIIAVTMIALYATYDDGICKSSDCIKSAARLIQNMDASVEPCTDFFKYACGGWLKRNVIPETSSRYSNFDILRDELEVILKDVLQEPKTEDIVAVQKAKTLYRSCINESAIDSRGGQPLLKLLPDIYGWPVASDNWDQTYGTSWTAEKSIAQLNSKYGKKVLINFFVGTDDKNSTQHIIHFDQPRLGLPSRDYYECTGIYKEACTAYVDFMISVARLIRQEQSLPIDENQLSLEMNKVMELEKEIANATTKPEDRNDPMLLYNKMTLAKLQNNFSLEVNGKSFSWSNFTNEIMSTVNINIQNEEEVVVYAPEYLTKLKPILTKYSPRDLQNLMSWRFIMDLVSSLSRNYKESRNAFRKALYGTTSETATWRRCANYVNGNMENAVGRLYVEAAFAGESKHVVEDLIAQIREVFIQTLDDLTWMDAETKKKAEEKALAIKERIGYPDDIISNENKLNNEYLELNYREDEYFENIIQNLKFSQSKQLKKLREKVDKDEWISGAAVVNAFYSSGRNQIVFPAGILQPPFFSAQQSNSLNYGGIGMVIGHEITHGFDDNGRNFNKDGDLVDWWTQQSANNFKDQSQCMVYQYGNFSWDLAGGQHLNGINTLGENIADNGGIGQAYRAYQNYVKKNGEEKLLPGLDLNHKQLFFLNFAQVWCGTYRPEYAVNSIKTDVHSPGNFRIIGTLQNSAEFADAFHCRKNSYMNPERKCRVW
Description: 50% Inhibitory potency against enkephalinase from mouse striatum.

Experiment [3] addresses T2, Angiotensin-converting enzyme (Mus musculus, UniProt P09470).
T2 sequence (P09470 whole entry): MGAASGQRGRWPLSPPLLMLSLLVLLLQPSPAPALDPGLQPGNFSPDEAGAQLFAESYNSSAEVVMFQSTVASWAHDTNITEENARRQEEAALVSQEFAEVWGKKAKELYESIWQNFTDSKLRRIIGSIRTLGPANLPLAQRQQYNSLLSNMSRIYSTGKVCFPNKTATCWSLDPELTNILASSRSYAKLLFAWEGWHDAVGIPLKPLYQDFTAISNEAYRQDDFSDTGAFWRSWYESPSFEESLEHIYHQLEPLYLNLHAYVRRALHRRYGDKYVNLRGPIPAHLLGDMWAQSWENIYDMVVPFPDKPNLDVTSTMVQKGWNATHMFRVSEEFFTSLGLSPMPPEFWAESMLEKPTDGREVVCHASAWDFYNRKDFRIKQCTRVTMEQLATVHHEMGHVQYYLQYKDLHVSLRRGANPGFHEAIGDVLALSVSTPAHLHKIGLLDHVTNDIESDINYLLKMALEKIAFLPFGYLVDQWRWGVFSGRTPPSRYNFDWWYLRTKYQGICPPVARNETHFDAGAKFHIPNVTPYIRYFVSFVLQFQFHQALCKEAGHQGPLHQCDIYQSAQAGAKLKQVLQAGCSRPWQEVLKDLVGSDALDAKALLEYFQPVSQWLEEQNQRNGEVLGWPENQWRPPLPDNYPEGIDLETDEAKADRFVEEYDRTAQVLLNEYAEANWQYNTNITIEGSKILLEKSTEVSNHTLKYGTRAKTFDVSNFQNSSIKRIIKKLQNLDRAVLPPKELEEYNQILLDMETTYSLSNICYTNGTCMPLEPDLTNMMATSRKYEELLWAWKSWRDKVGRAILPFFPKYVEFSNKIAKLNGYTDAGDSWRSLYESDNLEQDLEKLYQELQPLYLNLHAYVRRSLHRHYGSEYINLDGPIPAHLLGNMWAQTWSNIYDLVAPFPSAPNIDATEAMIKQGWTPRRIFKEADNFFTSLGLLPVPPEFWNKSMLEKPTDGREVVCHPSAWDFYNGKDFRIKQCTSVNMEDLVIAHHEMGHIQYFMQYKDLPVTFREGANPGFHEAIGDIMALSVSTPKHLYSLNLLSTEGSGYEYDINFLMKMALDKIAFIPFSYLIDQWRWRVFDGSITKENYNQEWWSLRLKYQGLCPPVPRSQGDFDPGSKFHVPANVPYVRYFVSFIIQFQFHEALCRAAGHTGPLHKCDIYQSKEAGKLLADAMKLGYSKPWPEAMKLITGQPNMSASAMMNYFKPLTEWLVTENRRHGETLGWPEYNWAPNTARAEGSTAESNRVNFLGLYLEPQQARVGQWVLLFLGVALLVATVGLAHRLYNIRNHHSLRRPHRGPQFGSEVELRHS
Kind of experiment: 50% Inhibitory potency against angiotensin I converting enzyme from mouse striatum.

Experiment [4] has as its target T2, Angiotensin-converting enzyme.
Description: 50% Inhibitory potency against Angiotensin I converting enzyme from mouse striatum.

For the molecule `C=CCN1CC[C@]23c4c5ccc(O)c4O[C@H]2C(=O)CC[C@@]3(O)[C@H]1C5.CC(C)CC(NC(=O)C(Cc1ccccc1)C(=O)O)C(=O)O`, the Writhing number in experiment [1] stood at 29.7. The term IC50 denotes the midpoint of a concentration-inhibition curve. `CC(C)C[C@H](NC(=O)[C@@H](Cc1ccccc1)NCC(=O)O)C(=O)O`: the IC50 in experiment [2] is > 100 µM. As to `CC(C)CC(NC(=O)C(CC(=O)O)Cc1ccccc1)C(=O)O` (stereo not drawn), the half-maximal inhibitory concentration (IC50) is 20 µM in experiment [3] and 0.8 µM in experiment [2].

Take `CC(C)CC(NC(=O)C(Cc1ccccc1)C(=O)O)C(=O)O` (stereo not drawn): the half-inhibitory concentration (IC50) in experiment [4] is > 1000 µM; in experiment [2] it was 0.7 µM. Also, the Writhing number in experiment [1] came out at 29.7. For `CC(C)CC(NC(=O)C(Cc1ccccc1)NCCC(=O)O)C(=O)O` (stereo not drawn), the half-inhibitory concentration (IC50) in experiment [3] is > 100 µM; in experiment [2], 11 µM. `CC(C)C[C@H](NC(=O)[C@H](Cc1ccccc1)NCC(=O)O)C(=O)O`: the IC50 in experiment [3] and in experiment [2] was 2 µM throughout. With `CC(C)C[C@@H](NC(=O)[C@@H](Cc1ccccc1)NCC(=O)O)C(=O)O`, inhibition in experiment [2] was half-maximal at 18 µM (IC50). For `C[C@H](NC(=O)[C@H](Cc1ccccc1)NCC(=O)O)C(=O)O`, the results for the half-inhibitory concentration (IC50) in experiment [3] and in experiment [2] were 4 µM and 0.5 µM, respectively. Regarding `CC(C)C[C@H](NC(=O)[C@@H](N)Cc1ccccc1)C(=O)O` (H-Phe-Leu-OH), the values for the 50% inhibitory concentration (IC50) in experiment [4] and in experiment [2] were 700 µM and 20 µM, respectively. The molecule `CC(C)CC(NC(=O)[C@H](Cc1ccccc1)NCC(=O)O)C(=O)O` (single isomer, unassigned) showed a half-maximal inhibitory concentration (IC50) in experiment [2] of 11 µM.

On to `C=CCN1CC[C@]23c4c5ccc(O)c4O[C@H]2C(=O)CC[C@@]3(O)[C@H]1C5` [NALOXONE], for which the Writhing number in experiment [1] worked out at 31.2.
